The text below walks through data of ChEMBL document CHEMBL1152444, “Terretonins E and F, inhibitors of the mitochondrial respiratory chain from the marine-derived fungus Aspergillus insuetus (#)” (J Nat Prod, 2009).

Calls of active or inactive are those of the source. The rule behind the calls is not given here.

The species entered for one test is Bos taurus. Briefly: (§1) Inhibition of NADH oxidase in beef heart submitochondrial particles by end-window spectrophotometry.
Turning to `O=c1ccn([C@@H]2O[C@H](CO)[C@@H](O)[C@H]2O)c(=O)[nH]1`, the outcome was inactive.

Target in a further test: not listed separately
The test is described as §1. More on the design: species or system Bos taurus.
As for `C=CC(C)(C)c1[nH]cnc1/C=C1/NC(=O)[C@H](C(C)C)NC1=O` [AURANTIAMINE], it took 15100 nM to reach half-maximal inhibition (IC50).

For `CCCCCCCCCC[C@H](O)[C@H]1CC[C@H]([C@H]2CC[C@H]([C@H](O)CCCCCCCCCCCCC3C(=O)O[C@@H](C)[C@@H]3O)O2)O1` (stereo partly specified) [LAHERRADURIN], the IC50 (usually the concentration at which inhibition is half-maximal) was determined as 0.18 nM.

In turn, `C=C(C)[C@H]1Cc2c(ccc3c2O[C@@H]2COc4cc(OC)c(OC)cc4[C@@H]2C3=O)O1` [ROTENONE] showed an IC50 of 5.1 nM.

With `C=C1C[C@@H]2[C@]3(C)C(=C(O)C(=O)[C@@]2(C)[C@]2(C(=O)OC)C(=O)O[C@H](C)C(=O)[C@@]12C)C(C)(C)C(=O)C[C@@H]3O` [terretonin E], the IC50 stood at 3900 nM. Against the preceding compound, the IC50 is about 760-fold higher.

As for `C=C1C[C@@H]2[C@@]3(C)C=CC(=O)C(C)(C)C3=C(O)C(=O)[C@@]2(C)[C@]2(C(=O)OC)C(=O)O[C@H](C)C(=O)[C@@]12C` [terretonin F], the IC50 turned out to be 2970 nM.
